The values that follow come from patent US20090042863A1, “Therapeutic Agent for Diabetes” (Takeda Pharmaceutical Company Limited, priority 2005, published 2009).

Structures can show the parent of a compound that is named as a salt.

Type in all cases: in vivo
Experiment [1] has as its system db/db mouse. Description: Pancreatic insulin content in db/db mice, Experimental Example 2 (voglibose, compound A). To be noted: male, 6-week-old, powder diet with voglibose 0.001 (w/w)% and/or compound A 0.03 (w/w)% free form for 27 consecutive days, pancreas isolated at day 29, mean ± SD, n=6. The method, then:
(§1) First, the mouse pancreas was homogenated in its 10 times weight of 74% ethanol (containing 0.15 mM hydrochloric acid). The obtained homogenate solution was left standing overnight under the shading conditions at 4° C., and centrifuged at 15000 rpm for 5 min. The obtained supernatant was appropriately diluted with PBS(−) (phosphate-buffered saline) containing 0.1% BSA (bovine serum albumin). The insulin content of the diluted solution was measured by radioimmunoassay (trade name: RAT INSULIN RIA KIT, manufactured by RINCO Research, U.S.A.), and the insulin content per pancreatic tissue weight was calculated. […]
In the above-mentioned Groups A-D, pancreas was isolated from the mice at day 29 from the start of the powder feed administration, and the pancreatic insulin content was measured.
(§2) The insulin content per pancreatic tissue weight was calculated in the same manner as in Experimental Example 1. […]

The test system of experiment [2] is db/db mouse. Description: Pancreatic insulin content in db/db mice, Experimental Example 4 (pioglitazone, compound C). The following applies: male, 6-week-old, powder diet with pioglitazone hydrochloride 0.0075 (w/w)% as pioglitazone and/or compound C 0.1 (w/w)% free form for 26 consecutive days, pancreas isolated at day 28, mean ± SD, n=7. As to the method: as §1
(§3) In the above-mentioned Groups A-D, pancreas was isolated from the mice at day 28 from the start of the powder feed administration, and the pancreatic insulin content was measured.
as §2

Experiment [3] concerns db/db mouse. The experiment is described as follows: Pancreatic insulin content in db/db mice, Experimental Example 3 (pioglitazone, compound B). The following applies: male, 6-week-old, powder diet with pioglitazone hydrochloride 0.0075 (w/w)% as pioglitazone and/or compound B 0.03 (w/w)% free form for 26 consecutive days, pancreas isolated at day 28, mean ± SD, n=7. The method, then:
as §1, §3, §2

In turn, `OCC(CO)N[C@H]1C[C@](O)(CO)[C@@H](O)[C@H](O)[C@H]1O` [voglibose] came in with a Pancreatic insulin content in experiment [1] of 198.1 ± 169.8 ng/mg tissue.

For `Cn1c(=O)cc(N2CCC[C@@H](N)C2)n(Cc2ccccc2C#N)c1=O.O=C(O)c1ccccc1` [compound A, 2-[[6-[(3R)-3-amino-1-piperidinyl]-3,4-dihydro-3-methyl-2,4-dioxo-1(2H)-pyrimidinyl]methyl]benzonitrile benzoate], in experiment [1], the Pancreatic insulin content stood at 92.0 ± 37.0 ng/mg tissue.

For the molecule `N#Cc1ccccc1Cn1c(N2CCC[C@@H](N)C2)ncc(F)c1=O.O=C(O)C(O)C(O)C(=O)O` [compound C, 2-[2-(3-(R)-aminopiperidin-1-yl)-5-fluoro-6-oxo-6H-pyrimidin-1-ylmethyl]benzonitrile tartrate], the Pancreatic insulin content in experiment [2] is on record as 57.2 ± 17.8 ng/mg tissue.

As for `CCc1ccc(CCOc2ccc(CC3SC(=O)NC3=O)cc2)nc1` (stereo not drawn) [pioglitazone, pioglitazone hydrochloride], the Pancreatic insulin content in experiment [2] and in experiment [3] was 74.8 ± 21.5 ng/mg tissue each time.

On to `Cn1c(=O)cc(N2CCC[C@@H](N)C2)n(Cc2cc(F)ccc2C#N)c1=O.O=C(O)CCC(=O)O` [compound B, 2-[[6-[(3R)-3-amino-1-piperidinyl]-3,4-dihydro-3-methyl-2,4-dioxo-1(2H)-pyrimidinyl]methyl]-4-fluorobenzonitrile succinate], for which the Pancreatic insulin content in experiment [3] turned out to be 58.1 ± 17.0 ng/mg tissue.
